Common to all, as to format: functional
One assay deals with Prevotella disiens. Kind of assay: Antibacterial activity against Prevotella disiens by CLSI M11-A6 agar dilution method in presence of beta-lactamase inhibitor Sulbactam. On the technique in general: In agar dilution the substance is mixed into plates at graded concentrations.
Another assay relates to Hoylesella loescheii. Kind of assay: Antibacterial activity against Prevotella loescheii by CLSI M11-A6 agar dilution method in presence of beta-lactamase inhibitor Sulbactam.
The test system of another assay is Ruminococcus lactaris. Description: Antibacterial activity against Ruminococcus lactaris by CLSI M11-A6 agar dilution method in presence of beta-lactamase inhibitor Sulbactam.
Another assay relates to Blautia producta. Description: Antibacterial activity against Ruminococcus productus by CLSI M11-A6 agar dilution method in presence of beta-lactamase inhibitor Sulbactam.
The next assay relates to Fusobacterium varium. Kind of assay: Antibacterial activity against Fusobacterium varium by CLSI M11-A6 agar dilution method in presence of beta-lactamase inhibitor Sulbactam.

Some results are limits rather than exact numbers.

With `CC1(C)S[C@@H]2[C@H](NC(=O)[C@H](N)c3ccccc3)C(=O)N2[C@H]1C(=O)O` [AMPICILLIN], the MIC50 (usually the lowest concentration that inhibits either 50% of growth or 50% of the strains tested, depending on the study) is at most 0.12 µg/mL in the assay on Prevotella disiens; at most 0.12 µg/mL in the assay on Hoylesella loescheii; at most 0.12 µg/mL in the assay with Ruminococcus lactaris; at most 0.12 µg/mL with Blautia producta; 2 µg/mL with Fusobacterium varium. For the same compound, the MIC90 (usually the lowest concentration that inhibits either 90% of growth or 90% of the strains tested, depending on the study) in the assay on Prevotella disiens stood at 2 µg/mL; with Hoylesella loescheii, 2 µg/mL; in the assay on Ruminococcus lactaris, 1 µg/mL; in the assay with Blautia producta, 1 µg/mL; in the assay on Fusobacterium varium it was 16 µg/mL.
